Results: patent US11969459B2, “Therapeutic agent for cardiomyopathy, old myocardial infarction and chronic heart failure” (StemRIM Inc., priority 2017, dated 2024)

How the values were obtained:
[1] = system: J2N-k hamsters; assay: Efficacy evaluation in dilated cardiomyopathy model (Example 1); format: in vivo, hamster
Source text: J2N-k hamsters (18-week-old, male, 20 animals in total), which are model animals of dilated cardiomyopathy, were obtained from Japan SLC, acclimated for 2 weeks, and then used for experiments. J2N-k hamsters spontaneously develop dilated cardiomyopathy due to deletion mutations in the […] gene (specifically, cardiomyocyte shedding and fibrosis begin around 5 weeks of age, cardiomegaly and cardiac dysfunction appear at approximately 20 weeks of age, and eventually they die of congestive heart failure at approximately 1 year. J Biochem. 2003 August; 134(2):269-76). Also, a peptide consisting of amino acid residues 1-44 (SEQ ID NO: 1) of the human HMGB1 protein was chemically synthesized by a solid-phase method. Hereinafter, the peptide is referred to as the HMGB1 peptide (1-44), and is abbreviated as “1-44” in the drawing corresponding to the Examples.
J2N-k hamsters were divided into the HMGB1 peptide (1-44)-treated (n=10) and PBS-treated (control, n=10) groups, and treatment was begun at 20 weeks of age (body weight about 120 g). Administration of the test substance was carried out by injecting a solution of the HMGB1 peptide (1-44), which has been adjusted to a concentration of 1 mg/ml with PBS as the vehicle, into the external jugular vein at a dose of 3 ml/kg (3 mg/kg as the peptide dosage) once a day for four consecutive days. In the control group, PBS was injected into the external jugular vein at a dose of 3 ml/kg once a day for four consecutive days. At 6 weeks after administration, a thoracotomy was performed under deep anesthesia, and the heart was removed. The mid portion of the heart was divided for cryopreservation and for paraffin fixation, and a histopathological examination was performed. Molecular biological studies were also performed using apical myocardium to evaluate effects of administration of the HMGB1 peptide (1-44).
Echocardiography was performed prior to dosing, and at 4 and 6 weeks after dosing; and left ventricular end-diastolic diameter (LVDd), left ventricular end-systolic diameter (LVDs), and left ventricular ejection fraction (LVEF) were measured and calculated to perform a cardiac function assessment. […]
Periodic Acid Schiff (PAS) staining of the myocardial tissue sections was performed to measure the short diameter of cardiomyocytes retaining a nuclear architecture, and the average of the measurements was obtained. This measurement was performed in five different fields and the mean value was calculated.
Immunostaining of the myocardial tissue sections was performed using antibodies against PDGFRα and CD29, which are surface markers of mesenchymal stem cells, to assess whether accumulation of mesenchymal stem cells was observed. Staining of the nuclei was performed using DAPI. […]
The structure of cardiomyocytes was observed by electron microscopy. Specifically, the full-thickness myocardium of the mid-portion was sampled, and subjected to pre-fixation with ½ Karnofsky, post-fixation with 2% osmium tetroxide, block-staining with 0.5% uranium acetate aqueous solution and dehydration with ethanol, and then embedded and polymerized by infiltrating epoxy resin (Queto1812). Ultrathin sections (70-110 nm) were made, and electron staining with uranium acetate and a lead stain solution was performed, and then observed by electron microscopy (H-7500, Hitachi High Technologies).

[2] = system: J2N-k hamsters; assay: Efficacy evaluation in dilated cardiomyopathy model, long-term observations (Example 2); format: in vivo, hamster; conditions: vs PBS group
Description: As in Example 1, twenty J2N-k hamsters were prepared and divided into the HMGB1 peptide (1-44)-treated group (n=11) and the PBS-treated group (control, n=9), and treatment was begun at 20 weeks of age. Administration of the test substance was carried out by injecting a solution of the HMGB1 peptide (1-44), which has been adjusted to a concentration of 1 mg/ml with PBS as the vehicle, into the external jugular vein at a dose of 3 ml/kg (3 mg/kg as the peptide dosage) once daily for four consecutive days. In the control group, PBS was injected into the external jugular vein at a dose of 3 ml/kg once a day for four consecutive days. Evaluation of the cardiac function and survival rate was continued thereafter while rearing the hamsters under normal conditions.
Echocardiography was performed prior to dosing, at 4 weeks after dosing, and every 2 weeks thereafter to measure LVEF.
After the last dose, the animals were kept under normal conditions and the survival rate was evaluated.

[3] = system: old myocardial infarction model rats; assay: Efficacy evaluation in old myocardial infarction model rats (Example 3); format: in vivo, SD rats
Description: SD rats (7-week-old, male, body weight of approximately 250 g) were anesthetized with the inhalation anesthetic sevofrane (or isoflurane) and intubated endotracheally after adequate suppression was achieved, and deep anesthesia was maintained with the inhalation anesthetic. A thoracotomy was performed in the supine position at the left fourth intercostal space, and the proximal portion of the left anterior descending coronary artery was ligated with 6-0 prolene sutures to create a broad-area myocardial infarction model. The cardiac function was evaluated by echocardiography 2 weeks after the infarction was made, and cases in which extensive infarction was obtained (LVEF<50%) were used as old myocardial infarction model rats (17 animals in total). Similar to the above examples, the HMGB1 peptide (1-44) consisting of SEQ ID NO: 1 was used.
The old myocardial infarction model rats were divided into the HMGB1 peptide (1-44)-treated group (n=9) and the PBS-treated group (control, n=8), and treatment was begun 2 weeks after the infarction was made. Administration of the test substance was carried out by injecting a solution of the HMGB1 peptide (1-44), which has been adjusted to a concentration of 1 mg/ml with PBS as vehicle, into the femoral veins at a dose of 3 ml/kg (3 mg/kg as the peptide dosage) once daily for four consecutive days. In the control group, PBS was injected at a dose of 3 ml/kg once a day via the femoral vein for four consecutive days. At 4 weeks after dosing, the heart was removed by re-thoracotomy under deep anesthesia. […] Both groups were comparatively studied using cardiac physiological, histopathological, and molecular biological techniques to evaluate the effects of administering the HMGB1 peptide (1-44). The condition after 2 weeks (14 days) or more have passed following the onset of myocardial infarction in model rats is equivalent to the condition after 30 days or more have passed following the onset of myocardial infarction in humans.
Echocardiography was performed at 1, 2, and 4 weeks after dosing, and the left ventricular end-diastolic diameter (LVDd), left ventricular end-systolic diameter (LVDs), and left ventricular ejection fraction (LVEF) were measured and calculated to perform a cardiac function assessment.
Myocardial tissue sections were stained with Sirius red, and the proportion of stain-positive area in the total area of the left ventricular myocardium was calculated as the percentage of fibrosis (%).
Von-Willebrand factors were stained at the infarct border to determine the number of blood vessels (number of vascular endothelial cells). This measurement was performed in 10 different fields and the mean value was calculated.
Periodic Acid Schiff (PAS) staining was performed at the infarct border, and the short diameter of cardiomyocytes retaining a nuclear architecture at the infarct border was measured, and the average of the measurements was obtained. This measurement was performed in 10 different fields and the mean value was calculated.
Staining of the nuclei was performed using DAPI.

[4] = system: Dahl salt-sensitive rats (DIS/Eis rats); assay: Efficacy evaluation in hypertensive cardiomyopathy model (Example 4); format: in vivo, rat; conditions: High-1-44 vs High-PBS group
Source text: The Dahl salt-sensitive rats (hereafter also referred to as DIS/Eis rats) were used in the experiments. DIS/Eis rats are hypertensive when fed with a high-salt diet and are a model that develop heart failure at a high incidence (e.g., when fed with a diet supplemented with 8% NaCl from 6 weeks of age, blood pressure reaches 250 mm Hg at 9 weeks of age, death begin to appear from 12 weeks of age, and death is highly probable by 16 weeks of age).
Ten DIS/Eis rats (6-weeks-old, male, body weight about 200 g, Japan SLC) were prepared and divided into two groups, a high-salinity diet group (n=7) and a low-salinity diet group (n=3), and feeding was continued until 15 weeks of age in which the former was fed with a diet supplemented with 8% NaCl and the latter was fed with a diet supplemented with 0.3% NaCl. Aside from the meals, nothing interfered with free movement and they were kept clean and rested without restriction on drinking water, feeding, and such in their cages.
At 11 weeks of age, the high-salinity diet group (n=7) was divided into the HMGB1 peptide (1-44)-treated group (n=3) and the control group (n=4), and treatment was initiated. Administration of the test substance was carried out by injecting a solution of the HMGB1 peptide (1-44), which has been adjusted to a concentration of 1 mg/ml with PBS as the vehicle, into the tail vein at a dose of 3 ml/kg (3 mg/kg as the peptide dosage) once daily for four consecutive days. The control group was injected with PBS at a dose of 3 ml/kg once a day via the tail vein for four consecutive days. Similar to the control group, the low-salinity diet group (n=3) also received PBS via the tail vein for four consecutive days. At 4 weeks after dosing (at 15 weeks, of age), hearts were removed from the rats by thoracotomy under general anesthesia, and their weight was measured, and then histological sections of the left ventricular myocardial cross sections were prepared at the papillary muscle level and subjected to histological analysis. In the following description, the HMGB1 peptide (1-44) administration group fed with a high-salinity diet is abbreviated as the “High-1-44 group”; the control group fed with a high-salinity diet is abbreviated as the “High-PBS group” and the low-salinity diet group is abbreviated as the “Low-PBS group”.
At 15 weeks of age, hearts were removed from rats in each group and weighed. […]
Myocardial tissue sections were stained with Sirius red, and the proportion of stain-positive area in the area of the whole heart or the left ventricle was calculated as the percentage of fibrosis (%).

[5] = 4 and 6 weeks after dosing, 3 mg/kg i.v. x4 days, vs PBS group
[6] = apical myocardium, vs PBS group
[7] = 4 weeks after dosing, vs PBS group
[8] = immunostaining of myocardial tissue
[9] = infarct border, vs PBS group, P=0.05

HMGB1 peptide (1-44): peptide consisting of amino acid residues 1-44 (SEQ ID NO: 1) of the human HMGB1 protein, chemically synthesized by a solid-phase method (MGKGDPKKPRGKMSSYAFFVQTCREEHKKKHPDASVNFSEFSKK)
left ventricular end-diastolic diameter (LVDd) [1, 5]: no significant differences
left ventricular end-systolic diameter (LVDs) [1, 5]: no significant differences
TSG-6 expression level (RT-PCR) [1, 6]: significantly higher
VEGF expression level (RT-PCR) [1, 6]: significantly higher
short diameter of cardiomyocytes (PAS staining) ([1]; both subendocardial layer and mid layer, 6 weeks after administration, vs PBS group): significantly smaller
left ventricular ejection fraction (LVEF) ([1]; echocardiography 4 and 6 weeks after dosing, 3 mg/kg external jugular vein once a day for four days, compared with PBS group): significantly higher
recruitment of cells positive for both PDGFRα and CD29 to the myocardial tissue ([1]; immunostaining of myocardial tissue sections): recruited
number of PDGFRα-positive and CD29-positive cells in the myocardial tissue ([1]; immunostaining, vs PBS group): significantly more
mitochondrial cristae structure of cardiomyocytes (electron microscopy) ([1]; loss of cristae structure in PBS group): cristae structure was maintained
number of blood vessels (anti-CD31 immunostaining), mid layer ([1]; mid layer, 6 weeks after administration, vs PBS group): significantly higher
percentage of Sirius red stain-positive area (myocardial fibrosis) ([1]; myocardial tissue sections 6 weeks after administration, vs PBS group): significantly smaller
number of blood vessels (anti-CD31 immunostaining), subendocardial layer ([1]; subendocardial layer, 6 weeks after administration, vs PBS group): tended to be higher
survival rate (viability) ([2]; long-term observations): tendency toward higher viability
LVEF, long-term ([2]; until 6 weeks after administration, 3 mg/kg i.v. x4 days): remained significantly higher
left ventricular ejection fraction (LVEF) ([3]; 4 weeks after dosing, 3 mg/kg femoral vein once daily for four days, begun 2 weeks after infarction, vs PBS group): significantly higher
left ventricular end-diastolic diameter (LVDd) [3, 7]: smaller values
left ventricular end-systolic diameter (LVDs) [3, 7]: smaller values
recruitment of cells positive for both PDGFRα and CD90 near the infarct border [3, 8]: recruited
recruitment of cells positive for both PDGFRα and CD105 near the infarct border [3, 8]: recruited
PDGFRα-positive and CD90-positive cells in the vicinity of the infarct border ([3]; immunostaining, vs PBS group): more
number of vessels at the infarct border (von-Willebrand factor staining) [3, 9]: significantly more vessels
short diameter of cardiomyocytes at the infarct border (PAS staining) [3, 9]: significantly smaller
percentage of Sirius red stain-positive area (myocardial fibrosis) ([3]; left ventricular myocardium, 4 weeks after dosing, vs PBS group): significantly smaller
average improvement in LVEF with respect to before the dosing ([3]; up to 4 weeks after dosing): about 7%
end-diastolic left ventricular anterior wall thickness (LVAWd) ([4]; 15 weeks of age): smaller
heart weight ([4]; 15 weeks of age, high-salinity diet, 3 mg/kg tail vein once daily for four days from 11 weeks of age): smaller heart weights
percentage of fibrosis in the left ventricle ([4]; left ventricle): smaller
percentage of Sirius red-stained positive area (percentage of fibrosis) in the whole heart ([4]; whole heart): smaller
